Assay results: publication PMC6358021 (European journal of medicinal chemistry, 2018)
Blank lines part the entries; values can stand above or below the compound they belong to.

Experiments:
P-glycoprotein (Pgp) = P-glycoprotein (Pgp) (Homo sapiens, UniProt P08183); test: P-glycoprotein substrate assessment; type: in vitro ADME; conditions: CRO service (Pharmaron or Cyprotex)
CYP3A4 = CYP3A4 (Homo sapiens, UniProt P08684); test: CYP3A4 inhibition; type: in vitro ADME; conditions: removal of the triazole moiety
CYP3A4, sequence (P08684 whole entry): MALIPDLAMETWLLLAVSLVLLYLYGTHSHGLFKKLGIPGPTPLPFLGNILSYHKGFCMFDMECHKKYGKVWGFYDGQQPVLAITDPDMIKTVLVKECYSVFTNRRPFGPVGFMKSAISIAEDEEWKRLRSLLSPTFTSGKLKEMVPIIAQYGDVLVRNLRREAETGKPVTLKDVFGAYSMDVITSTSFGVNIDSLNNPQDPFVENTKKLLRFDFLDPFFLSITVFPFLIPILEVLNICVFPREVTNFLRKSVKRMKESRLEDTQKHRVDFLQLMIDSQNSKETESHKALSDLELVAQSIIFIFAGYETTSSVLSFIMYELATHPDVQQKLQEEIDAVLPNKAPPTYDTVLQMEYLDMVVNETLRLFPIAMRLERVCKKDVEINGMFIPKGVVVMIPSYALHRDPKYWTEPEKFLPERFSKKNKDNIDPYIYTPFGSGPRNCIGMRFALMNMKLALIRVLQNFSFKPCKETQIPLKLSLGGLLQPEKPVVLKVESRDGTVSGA

[1] = system: Gli1 mRNA expression in ASZ cells; test: Hh inhibition: down-regulation of endogenous Gli1 mRNA expression in ASZ cells; type: cell-based, murine
human Smo = conditions: HEK293 cells that stably express human Smo; cited from earlier work

P-glycoprotein (Pgp), sequence (P08183 whole entry): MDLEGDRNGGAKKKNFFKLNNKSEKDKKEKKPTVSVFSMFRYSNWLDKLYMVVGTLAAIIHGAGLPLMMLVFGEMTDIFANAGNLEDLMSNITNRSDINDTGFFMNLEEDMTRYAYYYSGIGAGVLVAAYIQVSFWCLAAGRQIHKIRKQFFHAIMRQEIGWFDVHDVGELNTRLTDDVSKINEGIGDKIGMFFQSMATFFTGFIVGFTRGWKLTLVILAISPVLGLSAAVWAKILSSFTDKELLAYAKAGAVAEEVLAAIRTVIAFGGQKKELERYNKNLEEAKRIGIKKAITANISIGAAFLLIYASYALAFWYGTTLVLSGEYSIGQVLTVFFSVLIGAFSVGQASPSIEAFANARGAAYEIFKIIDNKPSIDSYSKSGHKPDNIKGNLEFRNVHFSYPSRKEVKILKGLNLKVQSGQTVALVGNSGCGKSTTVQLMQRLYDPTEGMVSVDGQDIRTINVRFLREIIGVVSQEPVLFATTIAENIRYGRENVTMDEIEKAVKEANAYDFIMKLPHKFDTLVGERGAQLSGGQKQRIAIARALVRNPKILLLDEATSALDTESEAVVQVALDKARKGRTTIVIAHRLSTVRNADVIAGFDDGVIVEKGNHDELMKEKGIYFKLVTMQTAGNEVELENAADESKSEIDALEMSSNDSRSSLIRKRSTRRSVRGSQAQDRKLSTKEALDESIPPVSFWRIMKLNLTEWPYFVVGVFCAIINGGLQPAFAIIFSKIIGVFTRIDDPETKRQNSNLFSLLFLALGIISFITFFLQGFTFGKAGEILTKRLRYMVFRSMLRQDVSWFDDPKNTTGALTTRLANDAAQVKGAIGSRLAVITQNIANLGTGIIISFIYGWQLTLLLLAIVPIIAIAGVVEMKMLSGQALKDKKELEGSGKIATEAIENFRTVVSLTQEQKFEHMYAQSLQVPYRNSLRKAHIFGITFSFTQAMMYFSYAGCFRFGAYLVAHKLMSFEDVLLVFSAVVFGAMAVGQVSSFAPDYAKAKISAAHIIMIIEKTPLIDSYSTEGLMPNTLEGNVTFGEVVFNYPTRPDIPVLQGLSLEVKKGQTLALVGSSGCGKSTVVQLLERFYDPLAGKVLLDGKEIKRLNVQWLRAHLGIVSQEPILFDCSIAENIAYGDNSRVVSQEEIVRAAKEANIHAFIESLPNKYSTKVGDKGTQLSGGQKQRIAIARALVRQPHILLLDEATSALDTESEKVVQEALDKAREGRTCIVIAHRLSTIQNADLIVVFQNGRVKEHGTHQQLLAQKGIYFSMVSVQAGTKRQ

P-gp Substrate (P-glycoprotein (Pgp)): identified as a substrate
SMILES: CC[C@@H]([C@H](C)O)n1ncn(-c2ccc(N3CCN(c4ccc(OC[C@@H]5CO[C@@](Cn6cncn6)(c6ccc(F)cc6F)C5)cc4)CC3)cc2)c1=O [PSZ, Posaconazole, reference compound]

ability to inhibit Cyp3A4, in words (CYP3A4): completely abolished
P-gp Substrate (P-glycoprotein (Pgp)): not a substrate
SMILES: CC[C@@H](C)n1ncn(-c2ccc(N3CCN(c4ccc(OC[C@@H]5CO[C@@](C)(c6ccc(F)cc6F)C5)cc4)CC3)cc2)c1=O [analogue 1, 2-((R)-sec-butyl)-4-(4-(4-(4-(((3R,5R)-5-(2,4-difluorophenyl)-5-methyltetrahydrofuran-3-yl)methoxy)phenyl)-piperazin-1-yl)phenyl)-2,4-dihydro-3H-1,2,4-triazol-3-one]
fold more potent than PSZ ([1]; ratio of IC50 values): approximately 2.5 fold

SMILES: CCC(C)n1ncn(-c2ccc(N3CCN(c4ccc(OCC5COC(Cn6cncn6)(c6ccc(Cl)cc6Cl)O5)cc4)CC3)cc2)c1=O (stereo not drawn) [ITZ, itraconazole]
displacement of a tritiated Smo antagonist (human Smo): significantly displaced

SMILES: CC1(c2ccc(Cl)cc2Cl)OCC(COc2ccc(N3CCN(c4ccc(-n5cnn(CCC(=O)O)c5=O)cc4)CC3)cc2)O1 (stereo not drawn) [analogue 21, 3-(4-(4-(4-(4-((2-(2,4-dichlorophenyl)-2-methyl-1,3-dioxolan-4-yl)methoxy)phenyl)piperazin-1-yl)phenyl)-5-oxo-4,5-dihydro-1H-1,2,4-triazol-1-yl)propanoic acid]
fold more active than 19 [1]: approximately 2 fold
